Data from patent US11014902B2, “MYC G-quadruplex stabilizing small molecules and their use” (The United States of America, as represented by the …, priority 2015, dated 2021).
Where two headings read alike, the source gives them in different places.

What was measured:
[1] = tested on: MYC expression in L363 cells; assay: Gene expression analysis (Nanostring, qPCR), MYC; format: cell-based, human; settings: L363 cells, 48 hours; 10 μM BRACO-19, 10 μM Compound 1, 7.5 μM Compound 23
Procedure: (§1) Gene expression analysis was performed on a panel of 770 cancer-associated genes in a multiplexed (nanostring) transcriptional assay. In addition to c-MYC itself, several c-Myc target genes were included in the panel, as were a number of other quadruplex-driven genes. […] Additionally, a third data set was collected comparing Compound 1 treatment to JQ-1 (a BET-bromodomain inhibitor) and quarfloxin (another quadruplex-binding small molecule).
(§2) The effects of Compound 1 on a number of known quadruplex-driven genes in the panel were examined further (FIG. 6). Expression levels of MYC, RB1, VEGFA, KRAS, and HIF1α, all of which are reported to be under the control of promoter G4s, and are expressed in L363 cells, were included in the panel of genes evaluated by Nanostring as discussed above. […] These changes in gene expression are in line with biophysical measurements of compound affinity. Corresponding data showing similar results is presented for Compounds 1 and 23 in FIGS. 14A and 14B. […] These observations further highlight the ability of Compound 1 and Compound 23 to specifically target the expression of c-Myc and related pathways.
(§3) The phenotype for c-MYC genetic knockdown in multiple myeloma was achieved through lentiviral transduction of shRNA for c-MYC, derived from the spinoculation of 293T cells and plasmids grown in STBL3 E. coli, and isolated with the Qiagen Plasmid Midi Kit. Aliquots of the plasmids were generously provided by Art Shaffer. RNA of treated myeloma cells at designated time points was isolated with the Qiagen RNeasy kit, and used with the nCounter Human Cancer Reference Kit (NanoString Technologies), surveying changes in expression for […] cancer-related human genes and 6 reference genes. Quantitative changes in expression were analyzed and grouped in the form of a heat map using the programming language, R. All other quantitative statistical packing was performed in GraphPad Prism.

[2] = tested on: RB1, VEGFA, KRAS, HIF1α, BCL2 expression in L363 cells; assay: Gene expression analysis (Nanostring, qPCR), other G4-associated genes; format: cell-based, human; settings: L363 cells, 48 hours; 10 μM BRACO-19, 10 μM Compound 1, 7.5 μM Compound 23
Procedure: as §1, §2, §3

L363 cells = assay: L363 cell viability (MTS); format: cell-based, human; settings: for viability at 10 µM: L-363, L363 cells; for IC50: read-out: IC50
Procedure: Since two thirds of multiple myeloma cases involve deregulated c-MYC expression (Kuehl and Bergsagel, Blood 2012, 120, 2351; Shou, et al., Proc Natl Acad Sci USA 2000, 97, 228), we elected to evaluate the cell viability effects of Compound 1 in a multiple myeloma model. […] This suppression was maintained over 72 hours, which is notable given the characteristic rapid replenishment of the protein—a phenomenon that complicates targeting c-Myc at the protein level (FIG. 4C). This effect was maintained across a genetically diverse set of 4 multiple myeloma lines. We observed decreases in c-MYC translation in all lines tested, and this effect also correlated with decreases in viability (FIG. 4D).
Human multiple myeloma and Burkitt's Lymphoma cell lines L363, CA46, MM-1R, KMS-11, and MM-1S were cultured and authenticated as previously described (Simmons, et al., Molecular oncology 2014, 8, 261). All plasma derived cell lines were cultured in RPMI-1640 (2 mM L-glutamine, 10% fetal bovine serum (FBS), 100 U/ml penicillin, 100 μg/ml streptomycin: Gibco) and incubated at 37° C. with 5% CO2. Viability experiments were performed in quadruplicate on 96-well plates (Costar) at designated time and dose points. MTS reagent was then directly added, incubated at 37° C. for 90 min, and absorbance of MTS formazan was read at 500 nm on an Omega 640 spectrophotometer. Percentage cell viability was normalized to the absorbance of untreated (DMSO) wells. In the case of cells harvested for their protein or RNA, pellets were flash frozen and stored at −80° C. overnight prior to use. […]

[3] = tested on: c-MYC expression in L363 cells; assay: Inhibition of c-MYC expression in L363 cells (Peggy); format: cell-based, human; settings: for Peggy (% c-Myc expression compared to untreated): L363 cells; for activity at 10 µM / Peggy (% c-Myc expression compared to untreated): at 10 μM
Text: FIG. 10 illustrates an exemplary procedure for generating analogs of Compound 1. The amine group of Compound 1 can be varied in reductive aminations to provide additional analogs. […] The table also provides an indication of an exemplary commercial source for the compounds, or (if applicable) an indication that the compound is new.

[4] = tested on: c-MYC G4 DNA (biotin-labeled Pu22 G-quadruplex); assay: Surface plasmon resonance (SPR); format: binding; settings: same experiment as Compound 1
Procedure: In order to quantitatively assess the binding affinity of Compound 1 with the c-MYC G4, surface plasmon resonance (SPR) experiments (De Crescenzo, et al., Cell Mol Bioeng 2008, 1, 204) were performed using a biotinylated c-MYC G4 oligonucleotide. The oligonucleotide was immobilized to a streptavidin-coated chip, and binding was measured as a function of concentration. (FIG. 2). […] Furthermore, Compound 1 interacts with quadruplex DNA through a reversible binding interaction, and rapid, complete dissociation can be observed in the sensogram (FIG. 2C).
SPR experiments were performed with a Biacore T200 (GE Healthcare). […] The c-MYC DNA was then captured (FC2: 1245 Ru) on a Series S Sensor CM5 Chip (GE Healthcare) with amine-coupled Neutravidin (FC1: 4466 Ru, FC2: 5458 Ru). Single Cycle Kinetics (SCK) experiments were carried out with five injections of increasing concentration of analyte solution, which was prepared by a three-fold serial dilution of compound with buffer (10 mM Tris pH 7.5, 100 mM KCl, 3 mM EDTA) containing 3% DMSO. Binding analysis was conducted at a flow rate of 30 μL/min at 25° C. In each run, the association phase and the subsequent dissociation phase were monitored for 1 min and 10 min, respectively. Prior to each compound injection, three buffer injections were made. […]

[5] = Homo sapiens, L-363, L363 cells, read-out: Peggy (% c-Myc expression compared to untreated)
[6] = Homo sapiens, L-363, viability of L363 cells

| Compound | viability at 10 µM (L363 cells; Homo sapiens) [%] | activity at 10 µM [3, 5] [%] | IC50 (L363 cells; [6]) [µM] | other results |
| --- | --- | --- | --- | --- |
| CN(C)c1ccc(Nc2c3ccc(NC(=O)CCN4CCCC4)cc3nc3cc(NC(=O)CCN4CCCC4)ccc23)cc1 [BRACO-19, reference compound] | – | – | – | c-Myc expression (qPCR) [1]: reduced c-Myc expression; expression of other G-quadruplex containing genes (qPCR) [2]: minimally affecting expression of other G-quadruplex containing genes |
| Cc1ccc(NC(=O)c2c(C)oc3ccc(O)c(CN4CCN(C)CC4)c23)cc1 [Compound 2] | 95 | 72 | – | – |
| Cc1ccc(NC(=O)c2c(C)oc3ccc(O)c(CN4CCCCCC4)c23)c(C)c1 [Compound 3] | – | 52 | 6.3 | – |
| Cc1ccccc1NC(=O)c1c(C)oc2ccc(O)c(CN3CCCCCC3)c12 [Compound 4] | 75 | 73 | – | – |
| Cc1ccccc1NC(=O)c1c(C)oc2ccc(O)c(CN3CCCCC3)c12 [Compound 5] | 85 | 89 | – | – |
| Cc1oc2ccc(O)c(CN3CCCCCC3)c2c1C(=O)Nc1cccc(Cl)c1C [Compound 6] | – | 45 | 4.9 | – |
| COc1ccc(NC(=O)c2c(C)oc3ccc(O)c(CN4CCCCCC4)c23)cc1 [Compound 7] | – | 81 | 7.2 | – |
| Cc1oc2ccc(O)c(CN3CCCCCC3)c2c1C(=O)NC1CCCCC1 [Compound 8] | – | 76 | – | – |
| Cc1oc2ccc(O)c(CN3CCCC3)c2c1C(=O)Nc1ccccc1 [Compound 9] | 100 | 96 | – | – |
| CCOC(=O)c1c(-c2ccccc2)oc2ccc(O)c(CN3CCCCCC3)c12 [Compound 10] | – | 37 | 7.1 | – |
| CCOC(=O)c1c(C)n(C)c2ccc(O)c(CN3CCC(C)CC3)c12 [Compound 11] | 89 | 69 | – | – |
| Cc1oc2ccc(O)c(CN3CCC(C)CC3)c2c1C(=O)Nc1cccc(C(F)(F)F)c1 [Compound 12] | – | – | 3.4 | Peggy (% c-Myc expression compared to untreated) [3]: 43% (at 10 μM) |
| Cc1oc2ccc(O)c(CN3CCCCCC3)c2c1C(=O)Nc1cccc(C(F)(F)F)c1 [Compound 13] | – | 12 | 3.3 | – |
| Cc1ccc(NC(=O)c2c(C)oc3ccc(O)cc23)cc1 [Compound 14] | 84 | 106 | – | – |
| Cc1ccc(NC(=O)c2c(C)oc3cccc(CN4CCCCCC4)c23)cc1 [Compound 15] | 53 | 80 | – | – |
| Cc1ccc(NC(=O)c2c(C)oc3ccc(OS(=O)(=O)C(F)(F)F)c(CN4CCCCCC4)c23)cc1 [Compound 16] | 70 | 112 | – | – |
| Cc1oc2ccc(O)c(CN3CCN(C)CC3)c2c1C(=O)Nc1cccc(C(F)(F)F)c1 [Compound 17] | – | 68 | > 12 | – |
| Cc1oc2ccc(O)c(CN3CCCCC3)c2c1C(=O)Nc1cccc(C(F)(F)F)c1 [Compound 18] | – | 6.5 | 5.2 | – |

| Compound | viability at 10 µM (L363 cells; Homo sapiens) [%] | activity at 10 µM [3, 5] [%] | IC50 (L363 cells; [6]) [µM] | other results |
| --- | --- | --- | --- | --- |
| Cc1oc2ccc(O)c(CN3CCCCC3C)c2c1C(=O)Nc1cccc(C(F)(F)F)c1 (stereo not shown) [Compound 19] | – | 0.56 | 3.8 | – |
| Cc1oc2ccc(O)c(CN3CCC(C)CC3)c2c1C(=O)Nc1cccc(C(F)(F)F)c1 [Compound 20] | – | – | – | IC50 (L363 cells; viability of L363 cells): 3.8 µM; Peggy (% c-Myc expression compared to untreated) [3]: 1.4% (at 10 μM) |
| Cc1oc2ccc(O)c(CN3CCC3)c2c1C(=O)Nc1cccc(C(F)(F)F)c1 [Compound 21] | – | 74 | > 12 | – |
| Cc1oc2ccc(O)c(CN3CCC3)c2c1C(=O)Nc1ccc(C(F)(F)F)cc1 [Compound 22] | 100 | 27 | – | – |
| Cc1oc2ccc(O)c(CN3CCCC3)c2c1C(=O)Nc1cccc(C(F)(F)F)c1 [Compound 24] | – | – | 7.8 | activity at 6 µM ([3]; Homo sapiens, L-363, L363 cells, at 6 μM, read-out: Peggy (% c-Myc expression compared to untreated)): 63% |
| Cc1oc2ccc(O)c(CN3CCCC3)c2c1C(=O)Nc1ccc(C(F)(F)F)cc1 [Compound 25] | – | 32 | 1.6 | – |
| Cc1oc2ccc(O)c(CN3CCC(C)CC3)c2c1C(=O)Nc1ccc(C(F)(F)F)cc1 [Compound 26] | – | – | 11.4 | – |
| Cc1oc2ccc(O)c(CN3CCCC[C@@H]3C)c2c1C(=O)Nc1ccc(C(F)(F)F)cc1 [Compound 27] | – | – | 25.8 | – |
| Cc1oc2ccc(O)c(CN3CCC[C@H]3C)c2c1C(=O)Nc1ccc(C(F)(F)F)cc1 [Compound 28] | – | – | 6.84 | – |
| Cc1oc2ccc(O)c(CN3CCC[C@@H]3C)c2c1C(=O)Nc1ccc(C(F)(F)F)cc1 [Compound 29] | – | – | 4.45 | – |
| Cc1oc2ccc(O)c(CCN3CCCCCC3)c2c1C(=O)Nc1ccc(C(F)(F)F)cc1 [Compound 30] | – | – | 38.2 | – |
| Cc1oc2ccc(O)c(CCCN3CCCCCC3)c2c1C(=O)Nc1ccc(C(F)(F)F)cc1 [Compound 31] | 100 | – | – | – |
| Cc1oc2ccc(O)c(CN3CC4CCC3C4)c2c1C(=O)Nc1ccc(C(F)(F)F)cc1 (stereo not shown) [Compound 32] | 100 | – | – | – |
| Cc1oc2ccc(O)c(CNC3CC4CCC3C4)c2c1C(=O)Nc1ccc(C(F)(F)F)cc1 (stereo not shown) [Compound 33] | 100 | – | – | – |
| Cc1oc2ccc(O)c(CNC3CC4CCC3CC4)c2c1C(=O)Nc1ccc(C(F)(F)F)cc1 (stereo not shown) [Compound 34] | – | – | 9.83 | – |
| Cc1oc2ccc(O)c(CNC3CC4CCC3CC4)c2c1C(=O)Nc1ccc(C(F)(F)F)cc1 (stereo not shown) [Compound 35] | 100 | – | – | – |
| CN1CCC[C@H]1CCNC(=O)c1cn2c3c(c(N4CCC(c5cnccn5)C4)c(F)cc3c1=O)Oc1cc3ccccc3cc1-2 (stereo partly shown) [Quarfloxin, reference compound] | – | – | – | binding (SPR) [4]: no evidence of binding |
